Data as given in patent publication US20050197364A1, “Amide compounds as ion channel ligands and uses thereof” (priority 2003, published 2005).

Test system: VR1 receptor
Test: High throughput calcium imaging assay (Fura2, Flex Station) of VR1 antagonists, pH 5.1 stimulus
Assay type: cell-based
Settings: 1 uM compound, inhibition of calcium ion influx induced by capsaicin stimulation
Experimental: Therefore the functional activity of compounds at the VR1 receptor may be determined by measuring changes in intracellular calcium levels in 293 cells expressing capsaicin-insensitive VR1 receptor variants. A dual wavelength ratiometric dye, Fura2, was used as an indicator of relative levels of calcium ions in a 96 well format using a bench top scanning fluorometer with integrated fluidics and temperature control (Flex Station, Molecular Devices).
293 cells were grown on PDL coated 96-well black-walled plates, in the presence of a DMEM medium containing 5% Penstrep, 5% Glutamax, 200 ug/mL Hygromycin, 5 μg/mL Blasticide and 10% heat inactivated FBS. Prior to assay, the cells were loaded with 5 μg/mL Fura2 in normal saline solution at 37° C. for 40 minutes. Cells were then washed with normal saline to remove the dye.
The assay consists of two stages; a pre-treatment phase followed by a treatment phase.
50 μl of a compound solution was added to the cells (Pre-treatment). Immediately following, 50 μl of the test compound in a saline solution at pH 5.1 was added. Fura2 was excited at 340 and 380 nM to indicate relative calcium concentration. Changes in wavelength measurements were made throughout the course of the experiment in 4 second intervals over a period of 3 minutes. Responses were measured as peak fluorescence ratio after test compound addition minus baseline fluorescence ratio prior to pre-treatment and were calculated using SoftMaxPro softwareData were expressed as percentage inhibition calculated using Excel as follows: [formula]

Structure (SMILES)	% Inhibition @ 1 uM	% Inhibition @ 1 uM (1 µM)
COc1cc(C(=O)Nc2ccc(-c3cnc[nH]3)cc2)ccc1-c1ncccc1Cl [Compound 260]	+ + + (“+ + +” compound exhibited 50-75% inhibition of calcium ion influx induced by capsaicin stimulation.)	
N#Cc1cccc(NC(=O)c2ccc(-c3ncccc3Cl)cn2)c1 [Compound 299]	+ + + + (“+ + + +” compound exhibited 75% or greater inhibition of calcium ion influx induced by capsaicin stimulation.)	
O=C(Nc1ccc2ncccc2c1)c1ccc(-c2ncccc2Cl)cc1F [Compound 107]	+ + (compound exhibited 25-50% inhibition of calcium ion influx induced by capsaicin stimulation)	
CC(C)(C)c1ccc(NC(=O)c2ccc(-c3ncccc3Cl)c(F)c2)cc1 [Compound 125]	+ + + + (compound exhibited 75% or greater inhibition of calcium ion influx induced by capsaicin stimulation)	
N#Cc1ccccc1NC(=O)c1ccc(-c2ncccc2Cl)cn1 [Compound 292]	+ (“+” compound exhibited 0-25% inhibition of calcium ion influx induced by capsaicin stimulation.)	
COc1cc(C(=O)Nc2cc(C)ccn2)ccc1-c1ncccc1Cl [Compound 223]	+ + + + (“+ + + +” compound exhibited 75% or greater inhibition of calcium ion influx induced by capsaicin stimulation.)	
O=C(Nc1ccc(Cl)c(C(F)(F)F)c1)c1ccc(-c2ncccc2Cl)cc1 [Compound 20]	+ + + (compound exhibited 50-75% inhibition of calcium ion influx induced by capsaicin stimulation)	
COc1cc(NC(=O)c2ccc(-c3ncccc3Cl)cc2)cc(C(F)(F)F)c1 [Compound 28]	+ + (compound exhibited 25-50% inhibition of calcium ion influx induced by capsaicin stimulation)	
O=C(Nc1cccnc1)c1ccc(-c2ncccc2Cl)cc1 [Compound 8]	+ + + + (compound exhibited 75% or greater inhibition of calcium ion influx induced by capsaicin stimulation)	
COc1ccc(NC(=O)c2ccc(-c3ncccc3Cl)cn2)cn1 [Compound 324]	+ + (“+ +” compound exhibited 25-50% inhibition of calcium ion influx induced by capsaicin stimulation.)	
COc1ccccc1NC(=O)c1ccc(-c2ncccc2Cl)c(OC)c1 [Compound 194]	+ + (compound exhibited 25-50% inhibition of calcium ion influx induced by capsaicin stimulation)	
O=C(Nc1ccc(Br)cn1)c1ccc(-c2ncccc2Cl)cc1 [Compound 49]	+ + (compound exhibited 25-50% inhibition of calcium ion influx induced by capsaicin stimulation)	
O=C(Nc1ccccc1)c1ccc(-c2ncccc2Cl)cn1 [Compound 289]	+ + + + (“+ + + +” compound exhibited 75% or greater inhibition of calcium ion influx induced by capsaicin stimulation.)	
COc1cc(C(=O)Nc2cccc(C(F)(F)F)c2)ccc1-c1ncccc1Cl [Compound 250]	+ + (“+ +” compound exhibited 25-50% inhibition of calcium ion influx induced by capsaicin stimulation.)	
CCCCc1ccc(NC(=O)c2ccc(-c3ncccc3Cl)c(F)c2)cc1 [Compound 127]	+ + + + (compound exhibited 75% or greater inhibition of calcium ion influx induced by capsaicin stimulation)	
O=C(Nc1ccc(N2CCNCC2)c(Cl)c1)c1ccc(-c2ncccc2Cl)cc1 [Compound 284]	+ + + (“+ + +” compound exhibited 50-75% inhibition of calcium ion influx induced by capsaicin stimulation.)	
O=C(Nc1ccncn1)c1ccc(-c2ncccc2Cl)cn1 [Compound 319]	+ + + + (“+ + + +” compound exhibited 75% or greater inhibition of calcium ion influx induced by capsaicin stimulation.)	
O=C(Nc1ccc(Cl)nc1)c1ccc(-c2ncccc2Cl)cc1 [Compound 31]	+ (compound exhibited 0-25% inhibition of calcium ion influx induced by capsaicin stimulation)	
O=C(Nc1ccc2ccccc2c1)c1ccc(-c2ncccc2Cl)cc1 [Compound 57]		+ + + + (compound exhibited 75% or greater inhibition of calcium ion influx induced by capsaicin stimulation)
O=C(Nc1ccc2ccccc2c1)c1ccc(-c2ncccc2Cl)cn1 [Compound 331]	+ + (“+ +” compound exhibited 25-50% inhibition of calcium ion influx induced by capsaicin stimulation.)	
O=C(Nc1cccc(Cl)c1)c1ccc(-c2ncccc2Cl)cc1 [Compound 12]	+ (compound exhibited 0-25% inhibition of calcium ion influx induced by capsaicin stimulation)	
COc1cc(C(=O)Nc2ccc3ncccc3c2)ccc1-c1ncccc1Cl [Compound 233]	+ + + + (“+ + + +” compound exhibited 75% or greater inhibition of calcium ion influx induced by capsaicin stimulation.)	
COc1cc(C(=O)Nc2ccnc(Cl)c2)ccc1-c1ncccc1Cl [Compound 231]	+ (“+” compound exhibited 0-25% inhibition of calcium ion influx induced by capsaicin stimulation.)	
O=C(Nc1ccc(C(F)(F)F)cc1)c1ccc(-c2ncccc2Cl)cn1 [Compound 308]	+ (“+” compound exhibited 0-25% inhibition of calcium ion influx induced by capsaicin stimulation.)	
O=C(Nc1cccnc1Cl)c1ccc(-c2ncccc2Cl)cc1F [Compound 101]	+ (compound exhibited 0-25% inhibition of calcium ion influx induced by capsaicin stimulation)	

Structure (SMILES)	% Inhibition @ 1 uM	% Inhibition @ 1 uM (1 µM)
CCCOc1ccc(NC(=O)c2ccc(-c3ncccc3Cl)c(F)c2)cc1 [Compound 173]	+ + (compound exhibited 25-50% inhibition of calcium ion influx induced by capsaicin stimulation)	
O=C(Nc1ccc2c(c1)OCCO2)c1ccc(-c2ncccc2Cl)cc1 [Compound 1]	+ + (compound exhibited 25-50% inhibition of calcium ion influx induced by capsaicin stimulation)	
O=C(Nc1ccc2c(c1)Cc1ccccc1-2)c1ccc(-c2ncccc2Cl)cc1 [Compound 36]	+ + (compound exhibited 25-50% inhibition of calcium ion influx induced by capsaicin stimulation)	
N#Cc1cccc(NC(=O)c2ccc(-c3ncccc3Cl)c(F)c2)c1 [Compound 124]	+ + + + (compound exhibited 75% or greater inhibition of calcium ion influx induced by capsaicin stimulation)	
COc1cc(C(=O)Nc2cccc(Cl)c2)ccc1-c1ncccc1Cl [Compound 193]	+ (compound exhibited 0-25% inhibition of calcium ion influx induced by capsaicin stimulation)	
COc1cc(C(=O)Nc2cccc(C#N)c2)ccc1-c1ncccc1Cl [Compound 201]	+ + + + (“+ + + +” compound exhibited 75% or greater inhibition of calcium ion influx induced by capsaicin stimulation.)	
O=C(Nc1ccncc1)c1ccc(-c2ncccc2Cl)c(F)c1 [Compound 140]	+ + + + (compound exhibited 75% or greater inhibition of calcium ion influx induced by capsaicin stimulation)	
Cc1cccnc1NC(=O)c1ccc(-c2ncccc2Cl)cc1F [Compound 95]	+ (compound exhibited 0-25% inhibition of calcium ion influx induced by capsaicin stimulation)	
O=C(Nc1ccncc1)c1ccc(-c2ncccc2Cl)cc1F [Compound 62]	+ (compound exhibited 0-25% inhibition of calcium ion influx induced by capsaicin stimulation)	
O=C(Nc1cccnc1Cl)c1ccc(-c2ncccc2Cl)cc1 [Compound 30]	+ + (compound exhibited 25-50% inhibition of calcium ion influx induced by capsaicin stimulation)	
CCCCc1ccc(NC(=O)c2ccc(-c3ncccc3Cl)cn2)cc1 [Compound 302]	+ + + (“+ + +” compound exhibited 50-75% inhibition of calcium ion influx induced by capsaicin stimulation.)	
O=C(Nc1cccnc1)c1ccc(-c2ncccc2Cl)cc1F [Compound 63]	+ (compound exhibited 0-25% inhibition of calcium ion influx induced by capsaicin stimulation)	
O=C(Nc1ccc(Cl)c(C(=O)O)c1)c1ccc(-c2ncccc2Cl)c(F)c1 [Compound 166]	+ + + + (compound exhibited 75% or greater inhibition of calcium ion influx induced by capsaicin stimulation)	
O=C(Nc1cc[nH]n1)c1ccc(-c2ncccc2Cl)cc1 [Compound 9]	+ (compound exhibited 0-25% inhibition of calcium ion influx induced by capsaicin stimulation)	
O=C(Nc1ccc(F)cc1)c1ccc(-c2ncccc2Cl)c(F)c1 [Compound 114]	+ (compound exhibited 0-25% inhibition of calcium ion influx induced by capsaicin stimulation)	
O=C(Nc1ccccc1CCO)c1ccc(-c2ncccc2Cl)cc1 [Compound 23]	+ + + (compound exhibited 50-75% inhibition of calcium ion influx induced by capsaicin stimulation)	
CC1CCCc2ccc(NC(=O)c3ccc(-c4ncccc4Cl)c(F)c3)cc21 (centres unmarked) [Compound 186]	+ (compound exhibited 0-25% inhibition of calcium ion influx induced by capsaicin stimulation)	
CCOc1cccc(NC(=O)c2ccc(-c3ncccc3Cl)cn2)c1 [Compound 347]	+ + + + (“+ + + +” compound exhibited 75% or greater inhibition of calcium ion influx induced by capsaicin stimulation.)	
CCn1c2ccccc2c2cc(NC(=O)c3ccc(-c4ncccc4Cl)cn3)ccc21 [Compound 328]	+ + + + (“+ + + +” compound exhibited 75% or greater inhibition of calcium ion influx induced by capsaicin stimulation.)	
O=C(Nc1cccc(OC(F)(F)F)c1)c1ccc(-c2ncccc2Cl)cn1 [Compound 344]	+ + (“+ +” compound exhibited 25-50% inhibition of calcium ion influx induced by capsaicin stimulation.)	
Cc1ccc(NC(=O)c2ccc(-c3ncccc3Cl)c(F)c2)c(C)c1 [Compound 128]	+ + + + (compound exhibited 75% or greater inhibition of calcium ion influx induced by capsaicin stimulation)	
O=C(Nc1ccnc(Cl)c1)c1ccc(-c2ncccc2Cl)cn1 [Compound 325]	+ (“+” compound exhibited 0-25% inhibition of calcium ion influx induced by capsaicin stimulation.)	
O=C(Nc1ccc(F)cc1[N+](=O)[O-])c1ccc(-c2ncccc2Cl)c(F)c1 [Compound 132]	+ + + + (compound exhibited 75% or greater inhibition of calcium ion influx induced by capsaicin stimulation)	
COc1cc(C(=O)Nc2cc(C)cc(C)n2)ccc1-c1ncccc1Cl [Compound 217]	+ (“+” compound exhibited 0-25% inhibition of calcium ion influx induced by capsaicin stimulation.)	
COc1ccc(NC(=O)c2ccc(-c3ncccc3Cl)cc2)cn1 [Compound 32]	+ (compound exhibited 0-25% inhibition of calcium ion influx induced by capsaicin stimulation)	
